# Laboratory results reported in patent US20050049207A1 (priority 2003, published 2005).
# Legend:
# [1] = tested on: prostate, lung and colorectal cancer; conditions: selenium supplements, humans; cited from earlier work
# Saccharomyces cerevisiae = Saccharomyces cerevisiae (brewer's/baker's yeast); cited from earlier work
# Candida albicans = conditions: cited from earlier work
# leukemia = conditions: human, in vivo; cited from earlier work
# PSA levels = conditions: men with prostate cancer; cited from earlier work
# prostate cancer = test: Case 4: person with prostate cancer on Phase I diet and antifungals; type: in vivo, man; conditions: one patient; Phase I diet 2 months, nystatin 2 months, then UGN, Caprylic acid, GSE; PSA closer to 4.0 at cancer diagnosis
# Text: 4. A person was diagnosed as having prostrate cancer. UTSW study for BPH ×5-6 yrs. Biopsy prior and post program. Normal PSA! At post-study diagnosis, cancer was found: October 2001. They moved to OKC and started watching Doug's show.
# Past history includes heavy use of antibiotics, recurrently for allergies, sinusitis.
# Went to MD Anderson—found cancer in different place of the prostate, but Cancer was confirmed nonetheless. Gleason stage 7.
# Started on Phase I for 2 months (had severe die-off ×4 days—including fever), nystatin thereafter ×2 months. Cont'd diet for 4 months and stays on a variant of the diet. On UGN, Caprylic acid, GSE now ×3 months. Saw John Hogan, D.O. (OKC). Past 2 yrs: PSA now is 1.1. Was closer to 4.0 at the time of cancer diagnosis.
# F/U Ultrasound: cannot find any tumors. Whole body scans have been negative.
# [2] = tested on: primary human urothelial cells; conditions: cited from earlier work
# [3] = in vivo; cited from earlier work
# [4] = tested on: p53 tumor suppressor gene; conditions: cited from earlier work
molecule,measurement,setting,value
[Se] [Selenium],lower risk of developing cancer,[1],37%
same,lower risk of dying from the cancer,[1],50%
CC/C(=C(\c1ccccc1)c1ccc(OCCN(C)C)cc1)c1ccccc1 [Tamoxifen],antifungal action,Saccharomyces cerevisiae,marked antifungal action
same,antifungal action,Candida albicans,marked antifungal action
C[C@@H]1[C@H](O)[C@@H](C)/C=C/C=C/C=C/C=C/C=C/C=C/C=C/[C@H](O[C@@H]2O[C@H](C)[C@@H](O)[C@H](N)[C@@H]2O)C[C@@H]2O[C@](O)(C[C@@H](O)C[C@@H](O)[C@H](O)CC[C@@H](O)C[C@@H](O)CC(=O)O[C@H]1C)C[C@H](O)[C@H]2C(=O)O [amphotericin B],effect on (secondary) fungal infections,leukemia,cured their (secondary) fungal infections
same,effect on cancer (leukemia),leukemia,successfully treated their cancer
OC(Cn1cncn1)(Cn1cncn1)c1ccc(F)cc1F [fluconazole],effect on (secondary) fungal infections,leukemia,cured their (secondary) fungal infections
same,effect on cancer (leukemia),leukemia,successfully treated their cancer
CC(=O)N1CCN(c2ccc(OCC3COC(Cn4ccnc4)(c4ccc(Cl)cc4Cl)O3)cc2)CC1 (stereo not shown) [ketoconazole],effect on PSA levels,PSA levels,lowered PSA levels
C[C@@H]1[C@H](O)[C@@H](C)/C=C/C=C/CC/C=C/C=C/C=C/C=C/C(O[C@H]2O[C@H](C)[C@@H](O)[C@H](N)[C@@H]2O)CC2O[C@](O)(CC(O)C(O)CCC(O)CC(O)CC(O)CC(=O)O[C@H]1C)CC(O)C2C(=O)O (stereo partly shown) [nystatin],PSA,prostate cancer,1.1
C[C@@H]1Cc2c(Cl)cc(C(=O)N[C@@H](Cc3ccccc3)C(=O)O)c(O)c2C(=O)O1 [ochratoxin A],unscheduled DNA synthesis,[2],Induction of unscheduled DNA synthesis
aflatoxin B1,liver carcinoma after exposure,[3],develop liver carcinoma
same,mutation of p53 tumor suppressor gene,[4],induces the transversion of G→T in codon 249
